The target of one test is T1, p62 protein (Homo sapiens, UniProt Q13501).
T1 construct: endogenous in cells; host or cells: HEK293 (lysate treated with compounds)
The test is described as follows: Oligomerization activity of p62 protein by immunoblotting (Experimental Example 1). The test is classed as cell-based. The note with it: HEK293 cell lysate treated with test compounds at room temperature for 2 hours; immunoblot, FIG. 2. An excerpt:
In order to evaluate the p62 protein oligomerization activity efficacy by the compounds (Examples 1-25), HEK293 cell line, which is human embryonic kidney-derived cell, was collected. As the representative compounds among the present compounds, the compounds of Examples 1, 2, 3, 5, 6, 7, 8, 9, 12, and 13 (Example 10 (YT-5-1), Example 11 (YT-5-2), Example 12 (YT 5-7), Example 13 (YT 5-8), Example 15 (YT-8-7), Example 16 (YT-8-8), Example 17 (YTK-107), Example 18 ([…]), Example 20 (ATB10041), Example 21 (ATB10042), Example 22 (ATB10043), Example 23 (ATB10044), Example 24 (ATB10045) and Example 25 (ATB10046)) were selected. In order to measure intracellular p62 protein activation and oligomerization according to the treatment with these selected representative compounds, the respective cells were dispensed into a 100 pi dish. The cells were collected after further culturing for 24 hours so that the cells were completely attached to the surface of the plate. 100 ul of lysis buffer (20 mM Tris, pH 7.4), 150 mM NaCl, 1% Triton X-100, 2 mM NaF, 2 mM EDTA, 2 mM beta-glycerophosphate, 5 mM sodium orthovanadate, 1 mM PMSF, leupeptin, aprotinin) were injected into each sample and the cells were lysed. Based on the measured total protein concentration, each sample was treated with test compounds at room temperature for 2 hours, and then a sample buffer was added and allowed to react at 95° C. for 10 minutes. 25 ul was taken from the samples after the reaction, and dispensed into each well of acrylamide gel, and then immunoblotting was performed.
In general terms: In western blotting, separated proteins are transferred to a membrane and probed.

Test [1] concerns LC3. The test is described as follows: Autophagy activity in cultured cells by immunoblotting, concentration series (Experimental Example 2). The test is classed as cell-based, human. The following applies: HeLa cells; 1, 2, 5, 10 and 20 μM, 24 hours; immunoblot, FIG. 3. Here is the method:
In order to evaluate the autophagy activity efficacy by the compounds (Examples 1-25), HeLa cell line, which is a cell line derived from a cervical cancer patient, was cultured using a DMEM medium containing 10% FBS and 1% streptomycin/penicillin in an incubator with 5% carbon dioxide. As the representative compounds among the present compounds, the compounds of Examples 1, 2, 3, 5, 6, 7, 8, 9, 12 and 13 (Example 5 (YTK-1005), Example 1 (YTK-1105), Example 6 (YTK-1205), Example 7 (YTK-1305), Example 2 (YTK-2205), Example 3 (YTK-3305), Example 8 (YTK-105), Example 9 (YTK-205), Example 14 (YTK-1108), Example 12 (YT 5-7), Example 13 (YT 5-8)), Example 20 (ATB10041), Example 21 (ATB10042), Example 22 (ATB10043), Example 23 (ATB10044), Example 24 (ATB10045), and Example 25 (ATB10046)) were selected. In order to measure autophagy activity according to the treatment with these selected representative compounds, the respective cells were dispensed into 6 well plates. Additional cultures were performed for 24 hours so that the cells were completely attached to the surface of the plate. To find the concentration at which the respective compounds could increase the phenomenon of autophagy, the test compounds were diluted at 1, 2, 5, 10 and 20 μM and treated. After treatment with the respective compounds, the cells were cultured again in a cell incubator for 24 hours, and then the cells were collected. To extract proteins from the collected cells, 100 ul of lysis buffer (20 mM Tris (pH 7.4), 150 mM NaCl, 1% Triton X-100, 2 mM NaF, 2 mM EDTA, 2 mM beta-glycerophosphate, 5 mM sodium orthovanadate, 1 mM PMSF, leupeptin, aprotinin) was injected into each sample, and cells were lysed. Based on the measured total protein concentration, a sample buffer was added to each sample and allowed to react at 100° C. for 5 minutes. 5 ul was taken from the samples after the reaction, and dispensed into each well of acrylamide gel, and then immunoblotting was performed.

For another test, the system named is p62 and LC3. The test is described as follows: Autophagy activity by immunofluorescence staining and confocal microscopy (Experimental Example 5). The test is classed as cell-based, human. The note with it: HeLa cells, 5 uM, 24 hours, FIG. 6. Here is the method: In order to confirm the p62 protein activity and the activity level of autophagy phenomenon by the compounds (Examples 1-25), immunofluorescence staining was performed using p62 and LC3 as markers. In order to confirm the p62 activity and the activity level of autophagy phenomenon by new p62 ligands and isomers thereof in cultured cells, HeLa cell line, which is a cell line derived from cervical cancer patient, was treated with the novel p62 ligand compounds (YTK-1205, YTK-1305, YTK-2205, YTK-3305, YTK-105, YTK-205, YT 5-1, YT 9-1, YT 5-2, YT 9-2, YT 8-2, YT 8-1, YTK-107, YTK-207) and cultured. Thereafter, as markers of the autophagy phenomenon, the expression level and location of LC3 puncta and the local co-existence with p62 puncta were observed.
For immunofluorescence staining, a cover glass was placed on a 24-well plate, cells were dispensed, cultured for 24 hours, and then treated with 5 uM of the novel p62 ligands according to the present invention. For the action of the compounds, additional cultures were performed for 24 hours, and then the medium was removed. Cells were fixed using formaldehyde at room temperature. In order to prevent non-specific staining, the cells were allowed to react with a blocking solution at room temperature for 1 hour, and then treated with LC3 antibody diluted at a certain ratio using the blocking solution, and allowed to reacted at room temperature for 1 hour. The antibody-treated cells were washed three times with PBS, and goat-derived secondary antibody was diluted at a certain ratio using the blocking solution, and then allowed to react at room temperature for 30 minutes. The cells were washed again with PBS three times, and for intracellular nuclear staining, the expression level, intracellular puncta formation and intracellular coexistence level of p62 and LC3 were observed through a confocal microscopy after DAPI staining.

For test [2], the system named is LC3. The test is described as follows: Autophagy activity in cultured cells by immunoblotting, treatment time (Experimental Example 3). Format: cell-based, human. The following applies: HeLa cells; 5 μM for 1, 3, 6, 12, 24, 48 hours or 10 μM for 24 hours; immunoblot, FIG. 4. Here is the method:
In order to investigate the autophagy activity efficacy by the compounds (Examples 1-25), immunoblotting was performed in the same manner as in Experimental Example 2 using LC3 as a marker. As for the difference, in order to evaluate the treatment time required for activation and the activity retention time, 5 μM of the representative compounds selected among the present compounds (Example 5 (YTK-1005), Example 6 (YTK-1205), Example 7 (YTK-1305), Example 2 (YTK-2205), Example 3 (YTK-3305), Example 14 (YTK-1108), Example 8 (YTK-105), Example 9 (YTK-205)) were treated for 1, 3, 6, 12, 24, 48 hours. On the other hand, 10 μM of the representative compounds selected among the present compounds (Example 10 (YT 5-1), Example 11 (YT 5-2), Example 16 (YT 8-8), Example 15 (YT 8-7), Example 17 (YTK-107), Example 18 (YTK-207), Example 20 (ATB10041), Example 21 (ATB10042), Example 22 (ATB10043), Example 23 (ATB10044), Example 24 (ATB10045), Example 25 (ATB10046)) were treated for 24 hours.

These results are taken from US12427346B2, “P62 ligand compound, and composition for preventing, ameliorating or treating proteinopathies comprising the same” (AUTOTAC INC., priority 2018, dated 2025).

T1 sequence (Q13501 whole entry): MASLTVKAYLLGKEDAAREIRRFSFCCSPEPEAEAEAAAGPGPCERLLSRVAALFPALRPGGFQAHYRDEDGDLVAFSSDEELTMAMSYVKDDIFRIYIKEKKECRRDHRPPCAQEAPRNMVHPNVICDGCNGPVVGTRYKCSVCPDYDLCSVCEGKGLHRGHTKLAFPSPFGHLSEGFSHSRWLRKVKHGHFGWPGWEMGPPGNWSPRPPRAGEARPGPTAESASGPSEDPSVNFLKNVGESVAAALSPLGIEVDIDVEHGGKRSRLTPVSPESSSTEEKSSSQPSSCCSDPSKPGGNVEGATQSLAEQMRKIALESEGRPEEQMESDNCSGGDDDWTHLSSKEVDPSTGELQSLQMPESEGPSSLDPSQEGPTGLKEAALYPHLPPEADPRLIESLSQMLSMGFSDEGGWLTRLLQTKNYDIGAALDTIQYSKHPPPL

On to `OCCNCc1cccc(OCc2ccc(Cl)cc2)c1` [YT 5-7, 2-((3-((4-chlorobenzyl)oxy)benzyl)amino)ethan-1-ol], for which the “p62 protein oligomerization activity (monomer, oligomers and high-molecular aggregates)” value (shortened to “p62 protein oligomerization activity”) at p62 protein is given as “increasing the p62 protein oligomerization activity”. Besides, the “autophagy activity (level of LC3)” value in the test with LC3 [1] was “increasing the autophagy activity”.

For the compound `OCCNCc1cccc(OCc2ccc(F)cc2)c1` [YT 5-8, 2-((3-((4-fluorobenzyl)oxy)benzyl)amino)ethan-1-ol], the “p62 protein oligomerization activity” value at p62 protein is recorded as “increasing the p62 protein oligomerization activity”. Moreover, the “autophagy activity (level of LC3)” value with LC3 [1] was “increasing the autophagy activity”.

As for `OCCNCc1ccc(OCc2ccc(Cl)cc2)c(OCc2ccc(Cl)cc2)c1` [YT-5-1, 2-((3,4-bis((4-chlorobenzyl)oxy)benzyl)amino)ethan-1-ol], the “p62 activation and oligomerization, delivery to autophagosome, autophagy activity (p62 and LC3 puncta, local coexistence)” value (“p62 activation and oligomerization” below) in the test with p62 and LC3 was “allow the activation and oligomerization of p62 proteins, and then show the efficacy of delivering them to autophagosome and simultaneously increasing autophagy activity”. The “autophagy activity (level of LC3)” value with LC3 [2] is given as “increasing the autophagy activity”. Moreover, at p62 protein, the “p62 protein oligomerization activity” value is listed as “increasing the p62 protein oligomerization activity”.

Turning to `OCCNCc1ccc(OCc2ccc(F)cc2)c(OCc2ccc(F)cc2)c1` [YT-5-2, 2-((3,4-bis((4-fluorobenzyl)oxy)benzyl)amino)ethan-1-ol], the “p62 activation and oligomerization” value with p62 and LC3 is “allow the activation and oligomerization of p62 proteins, and then show the efficacy of delivering them to autophagosome and simultaneously increasing autophagy activity”. In addition, the “autophagy activity (level of LC3)” value with LC3 [2] is given as “increasing the autophagy activity”. Moreover, the “p62 protein oligomerization activity” value on p62 protein was “increasing the p62 protein oligomerization activity”.

As for `N=C(N)NCCNCc1cccc(OCc2ccccc2)c1` [YTK-107, 1-(2-((3-(benzyloxy)benzyl)amino)ethyl)guanidine], the “p62 activation and oligomerization” value in the test with p62 and LC3 is “allow the activation and oligomerization of p62 proteins, and then show the efficacy of delivering them to autophagosome and simultaneously increasing autophagy activity”. In addition, in the test with LC3 [2], the “autophagy activity (level of LC3)” value is given as “increasing the autophagy activity”. The “p62 protein oligomerization activity” value at p62 protein is on record as “increasing the p62 protein oligomerization activity”.

As for `N=C(N)NCCNCc1cccc(OCCc2ccccc2)c1` [YTK-207], the “p62 activation and oligomerization” value with p62 and LC3 was “allow the activation and oligomerization of p62 proteins, and then show the efficacy of delivering them to autophagosome and simultaneously increasing autophagy activity”. In addition, in the test with LC3 [2], the “autophagy activity (level of LC3)” value was “increasing the autophagy activity”. For the same compound, the “p62 protein oligomerization activity” value at p62 protein is listed as “increasing the p62 protein oligomerization activity”.

As for `OCCNCc1ccc(OCc2ccccc2)c(OCc2ccccc2)c1` [YTK-1105, 2-((3,4-bis(benzyloxy)benzyl)amino)ethan-1-ol], in the test with LC3 [1], the “autophagy activity (level of LC3)” value is recorded as “increasing the autophagy activity”.

Regarding `OCCNCCNCc1ccc(OCc2ccccc2)c(OCc2ccccc2)c1` [YTK-1108, 2-((2-((3,4-bis(benzyloxy)benzyl)amino)ethyl)amino)ethan-1-ol], in the test on LC3 [1], the “autophagy activity (level of LC3)” value is on record as “increasing the autophagy activity”.

Turning to `OCCNCc1ccc(OCc2ccccc2)c(OCCc2ccccc2)c1` [YTK-1205, 2-((4-(benzyloxy)-3-phenethoxybenzyl)amino)ethan-1-ol], the “p62 activation and oligomerization” value in the test on p62 and LC3 was “allow the activation and oligomerization of p62 proteins, and then show the efficacy of delivering them to autophagosome and simultaneously increasing autophagy activity”. For the same compound, the “autophagy activity (level of LC3)” value in the test on LC3 [1] is reported as “increasing the autophagy activity”.

As to `OCCNCc1ccc(OCc2ccccc2)c(OCCCc2ccccc2)c1` [YTK-1305, 2-((4-(benzyloxy)-3-(3-phenylpropoxy)benzyl)amino)ethan-1-ol], in the test on p62 and LC3, the “p62 activation and oligomerization” value was “allow the activation and oligomerization of p62 proteins, and then show the efficacy of delivering them to autophagosome and simultaneously increasing autophagy activity”. Also, the “autophagy activity (level of LC3)” value in the test with LC3 [1] was “increasing the autophagy activity”.

For `OCCNCc1ccc(OCCc2ccccc2)c(OCCc2ccccc2)c1` [YTK-2205, 2-((3,4-diphenethoxybenzyl)amino)ethan-1-ol], in the test with p62 and LC3, the “p62 activation and oligomerization” value is “allow the activation and oligomerization of p62 proteins, and then show the efficacy of delivering them to autophagosome and simultaneously increasing autophagy activity”. The “autophagy activity (level of LC3)” value with LC3 [1] is reported as “increasing the autophagy activity”.

With `OCCNCc1ccc(OCCCc2ccccc2)c(OCCCc2ccccc2)c1` [YTK-3305, 2-((3,4-bis(3-phenylpropoxy)benzyl)amino)ethan-1-ol], the “p62 activation and oligomerization” value in the test with p62 and LC3 was “allow the activation and oligomerization of p62 proteins, and then show the efficacy of delivering them to autophagosome and simultaneously increasing autophagy activity”. Further, the “autophagy activity (level of LC3)” value in the test with LC3 [1] is “increasing the autophagy activity”.
